According to ChEMBL document CHEMBL6087402, “Design, synthesis, and in vitro and in vivo biological evaluation of dihydroartemisinin derivatives as potent anti-cancer agents with ferroptosis-inducing and apoptosis-activating properties” (Eur J Med Chem, 2025):
Active and inactive are the calls of the source. The rule behind the calls is not given here.

What was measured:
[1] = tested on: HCT-116; test: Induction of mitochondrial membrane potential loss in human HCT-116 cells assessed as increase in green fluorescence incubated upto 3 uM by JC-1 dye based analysis; assay type: functional, cell-based
[2] = Toxicity in BALB/c mouse assessed as apparent damage in heart at 100 mg/kg, ip administered continuously for 7 days by H and E staining based analysis; assay type: organism-based; conditions: in vivo, 168 h, time 7 day
[3] = tested on: HCT-116; test: Induction of oxidative stress in human HCT-116 cells assessed as increase in MDA level incubated for 24 hrs; assay type: functional, cell-based; conditions: dose <= 3.0 µM
[4] = tested on: HCT-116; test: Induction of ferroptosis in human HCT-116 cells assessed as reduction in GPX4 level upto 3 uM incubated for 72 hrs by Western blot analysis; assay type: functional, cell-based
[5] = Toxicity in BALB/c mouse assessed as animal death at 100 mg/kg, ip administered continuously for 7 days; assay type: organism-based; conditions: in vivo, 168 h, time 7 day
[6] = tested on: HCT-116; test: Antitumor activity against human HCT-116 cells xenografted in mouse assessed as reduction in nuclear-cytoplasmic ratio at 50 mg/kg, ip administered once in every 2 days for 21 days by H and E staining based analysis; assay type: functional, organism-based; conditions: time 21.0 day
[7] = tested on: HCT-116; test: Anti-proliferative activity against human HCT-116 cells assessed as reduction in total STAT3 level upto 3 uM incubated for 72 hrs by Western blot analysis; assay type: functional, cell-based
[8] = Toxicity in BALB/c mouse assessed as lethal dose administered intraperitoneally continuously for 7 days; conditions: in vivo, route ip, time 7 day
[9] = tested on: HCT-116; test: Induction of apoptosis in human HCT-116 cells assessed as increase in Bax level upto 3 uM incubated for 72 hrs by Western blot analysis; assay type: functional, cell-based
[10] = tested on: HCT-116; test: Induction of cell cycle arrest in human HCT-116 cells assessed as accumulation at G0/G1 phase at 0.03 uM incubated for 72 hrs by PI staining based flow cytometry (reference value: 80.71 %); assay type: functional
[11] = Toxicity in BALB/c mouse assessed as change fur luster at 100 mg/kg, ip administered continuously for 7 days; assay type: organism-based; conditions: in vivo, 168 h, time 7 day
[12] = tested on: HCT-116; test: Induction of cell cycle arrest in human HCT-116 cells assessed as accumulation at S phase at 0.3 uM incubated for 72 hrs by PI staining based flow cytometry (reference value: 23.49 %); assay type: functional
[13] = Toxicity in BALB/c mouse assessed as difficulty in breathing at 100 mg/kg, ip administered continuously for 7 days; assay type: organism-based; conditions: in vivo, 168 h, time 7 day
[14] = tested on: HCT-116; test: Induction of apoptosis in human HCT-116 cells assessed as increase in p38 level upto 3 uM incubated for 72 hrs by Western blot analysis; assay type: functional, cell-based
[15] = tested on: HCT-116; test: Induction of apoptosis in human HCT-116 cells assessed as late apoptotic cells at 0.03 uM incubated for 72 hrs by Annexin V-FITC/PI staining based flow cytometry (reference value: 0.98 %); assay type: functional
[16] = tested on: HCT-116; test: Antitumor activity against human HCT-116 cells xenografted in mouse assessed as reduction in cellular atypia at 50 mg/kg, ip administered once in every 2 days for 21 days by H and E staining based analysis; assay type: functional, organism-based; conditions: time 21.0 day
[17] = tested on: HCT-116; test: Induction of lipid peroxidation in human HCT-116 cells upto 3 uM incubated for 24 hrs by confocal fluorescence microscopy; assay type: functional, cell-based
[18] = Toxicity in BALB/c mouse assessed as diarrhea at 100 mg/kg, ip administered continuously for 7 days; assay type: organism-based; conditions: in vivo, 168 h, time 7 day
[19] = tested on: HCT-116; test: Induction of intracellular ROS level in human HCT-116 cells upto 3 uM incubated for 24 hrs by DCFH-DA dye based analysis; assay type: functional, cell-based
[20] = tested on: HCT-116; test: Induction of apoptosis in human HCT-116 cells assessed as late apoptotic cells at 0.3 uM incubated for 72 hrs by Annexin V-FITC/PI staining based flow cytometry (reference value: 0.98 %); assay type: functional
[21] = tested on: HCT-116; test: Anti-proliferative activity against human HCT-116 cells incubated for 72 hrs by MTT assay; assay type: functional, cell-based; conditions: HCT-116, 72 h
[22] = tested on: HCT-116; test: Antitumor activity against human HCT-116 cells xenografted in mouse assessed as reduction in tumor cell mitotic figures at 50 mg/kg, ip administered once in every 2 days for 21 days by H and E staining based analysis; assay type: functional, organism-based; conditions: time 21.0 day
[23] = tested on: HCT-116; test: Inhibition of cell proliferation in human HCT-116 cells at 3 uM incubated for 12 hrs by EdU assay (reference value: 48.14 %); assay type: functional
[24] = tested on: HCT-116; test: Induction of apoptosis in human HCT-116 cells assessed as necrotic cells at 3 uM incubated for 72 hrs by Annexin V-FITC/PI staining based flow cytometry (reference value: 0.33 %); assay type: functional
[25] = tested on: HCT-116; test: Induction of apoptosis in human HCT-116 cells assessed as increase in JNK level upto 3 uM incubated for 72 hrs by Western blot analysis; assay type: functional, cell-based
[26] = tested on: HCT-116; test: Induction of cell cycle arrest in human HCT-116 cells assessed as accumulation at S phase at 0.03 uM incubated for 72 hrs by PI staining based flow cytometry (reference value: 23.49 %); assay type: functional
[27] = tested on: HCT-116; test: Induction of cell cycle arrest in human HCT-116 cells assessed as accumulation at G0/G1 phase at 3 uM incubated for 72 hrs by PI staining based flow cytometry (reference value: 80.71 %); assay type: functional
[28] = Toxicity in BALB/c mouse assessed as toxic effect upto 100 mg/kg, ip administered continuously for 7 days; assay type: organism-based; conditions: in vivo, 168 h, time 7 day
[29] = tested on: HCT-116; test: Induction of apoptosis in human HCT-116 cells assessed as early apoptotic cells at 0.3 uM incubated for 72 hrs by Annexin V-FITC/PI staining based flow cytometry (reference value: 1.55 %); assay type: functional
[30] = Toxicity in BALB/c mouse assessed as decrease in body weight at 100 mg/kg, ip administered continuously for 7 days; assay type: organism-based; conditions: in vivo, 168 h, time 7 day
[31] = tested on: HCT-116; test: Induction of apoptosis in human HCT-116 cells assessed as early apoptotic cells at 0.03 uM incubated for 72 hrs by Annexin V-FITC/PI staining based flow cytometry (reference value: 1.55 %); assay type: functional
[32] = Toxicity in BALB/c mouse assessed as apparent damage in lungs at 100 mg/kg, ip administered continuously for 7 days by H and E staining based analysis; assay type: organism-based; conditions: in vivo, 168 h, time 7 day
[33] = Toxicity in BALB/c mouse assessed as apparent damage in liver at 100 mg/kg, ip administered continuously for 7 days by H and E staining based analysis; assay type: organism-based; conditions: in vivo, 168 h, time 7 day
[34] = Toxicity in BALB/c mouse assessed as apparent damage in kidney at 100 mg/kg, ip administered continuously for 7 days by H and E staining based analysis; assay type: organism-based; conditions: in vivo, 168 h, time 7 day
[35] = tested on: HCT-116; test: Induction of cell cycle arrest in human HCT-116 cells assessed as accumulation at G2/M phase at 0.3 uM incubated for 72 hrs by PI staining based flow cytometry (reference value: 15.79 %); assay type: functional
[36] = tested on: HCT-116; test: Induction of cell cycle arrest in human HCT-116 cells assessed as accumulation at G0/G1 phase at 0.3 uM incubated for 72 hrs by PI staining based flow cytometry (reference value: 80.71 %); assay type: functional
[37] = tested on: HCT-116; test: Induction of cell cycle arrest in human HCT-116 cells assessed as accumulation at S phase at 3 uM incubated for 72 hrs by PI staining based flow cytometry (reference value: 23.49 %); assay type: functional
[38] = tested on: Bel-7402; test: Anti-proliferative activity against human Bel-7402 cells incubated for 72 hrs by MTT assay; assay type: functional, cell-based; conditions: Bel-7402, 72 h

C[C@@H]1CC[C@H]2[C@@H](C)C(OC(=O)Nc3ccc(Cl)cc3)O[C@@H]3O[C@@]4(C)CC[C@H]1[C@]32OO4 (stereo partly drawn)
Activity [1]: Active | Activity [2]: Non-toxic | Activity [3]: Dose-dependent-effect | Activity [4]: Active | Activity [5]: Non-toxic | Activity [6]: Active | Activity [7]: Active | LD50 at 168 h [8]: > 100 mg/kg | Activity [9]: Active | Activity [10]: 49.21% | Activity [11]: Non-toxic | Activity [12]: 24.55% | Activity [13]: Non-toxic | Activity [14]: Active | Activity [15]: 2.4% | Activity [16]: Active | Activity [17]: Active | Activity [18]: Non-toxic | Activity [19]: Active | Activity [20]: 8.21% | IC50 [21]: 0.31 µM | Activity [22]: Active | inhibition at 3 µM [23]: 11.3% | Activity [24]: 0.026% | Activity [25]: Active | Activity [26]: 25.54% | Activity [27]: 42.97% | Activity [28]: Non-toxic | Activity [29]: 9.8% | Activity [30]: Non-toxic | Activity [31]: 4.11% | Activity [32]: Non-toxic | Activity [33]: Non-toxic | Activity [34]: Non-toxic | Activity [35]: 37.8% | Activity [36]: 37.62% | Activity [37]: 23.71% | IC50 [38]: 8.41 µM
